From EP0194905A1, “5',5'''-P1,P4-diadenosine-tetraphosphate alpha-,beta-phosphorylase and its use in the preparation of isotope-labelled nucleotides” (priority 1985, dated 1986) come the findings set out here.

The experiment concerns the target T1, Ap4A-phosphorylase (Saccharomyces cerevisiae, UniProt P16550).
T1 construct: l'Ap4A phosphorylase est constituée d'une seule chaîne; endogenous in cells; host or cells: Saccharomyces cerevisiae yeast cells; enzyme purified by ammonium sulfate, DEAE-Sephacel, Sephadex G-100, hydroxyapatite and Sephadex G-75 superfine
T1 sequence (P16550 1-321): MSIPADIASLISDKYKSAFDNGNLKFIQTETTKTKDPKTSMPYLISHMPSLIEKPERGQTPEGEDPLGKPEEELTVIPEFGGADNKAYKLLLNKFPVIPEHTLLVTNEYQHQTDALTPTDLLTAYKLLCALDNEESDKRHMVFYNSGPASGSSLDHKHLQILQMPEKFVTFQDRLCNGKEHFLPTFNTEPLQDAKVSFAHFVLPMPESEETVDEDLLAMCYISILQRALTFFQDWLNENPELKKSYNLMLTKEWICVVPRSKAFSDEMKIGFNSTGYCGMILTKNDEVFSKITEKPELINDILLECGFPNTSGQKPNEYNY
As to the kind of experiment: NDP-P* exchange reaction catalysed by Ap4A-phosphorylase. It counts as biochemical. Conditions: AMPS versus ADP. The text has this: On a estimé les constantes de Michaelis Km et les vitesses d'échange pour différents NDP au pH optimum, lequel varie en fonction des substrats. Les résultats obtenus sont rassemblés dans le tableau Il ci-après ainsi que les conditions expérimentales.

`Nc1ncnc2c1ncn2[C@@H]1O[C@H](COP(=O)(O)OS(=O)(=O)O)[C@@H](O)[C@H]1O` [AMPS, adénosine 5'-phosphosulfate]: the “rapport V/km, fold higher than for ADP” value is listed as approximately 5 fois.
